Values joined by “and” are separate entries in the source; they are usually repeats but may differ in a detail not shown here. Equal entries are not always repeated.
Assays:
A549 cells = test: PD assay (Assay 2): inhibition of nuclear symmetric Arginine dimethylation (SYM10 immunohistochemistry) in A549 cells; format: cell-based; conditions: individual measurements shown; for IC50: Homo sapiens, A549, PD assay in A549 cells, read-out: pIC50 Assay 2 (converted); for pIC50 Assay 2: PD assay in A549 cells
How it was run: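 A549 cells dosed with a nine-point series (0.2% DMSO) for 48 h at 37° C, then fixed and immunostained with SYM10 anti-symmetric-dimethylarginine antibody, plus Hoechst and CellMask counterstains for high-content imaging. Nuclear signal normalized between DMSO and 10 μM reference-compound controls to derive IC50/pIC50.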

PRMT5-MEP50 enzyme = target: T1, PRMT5-MEP50 enzyme (Homo sapiens, UniProt O14744); test: In vitro assay (Assay 1): PRMT5-MEP50 high throughput mass spectrometer assay, inhibition of SAH formation; format: biochemical; conditions: individual measurements shown, read-out: pIC50 Assay 1 (converted)
T1 construct: One virus expresses full length human PRMT5 with Flag-tag at N-terminus
T1 sequence (O14744 whole entry): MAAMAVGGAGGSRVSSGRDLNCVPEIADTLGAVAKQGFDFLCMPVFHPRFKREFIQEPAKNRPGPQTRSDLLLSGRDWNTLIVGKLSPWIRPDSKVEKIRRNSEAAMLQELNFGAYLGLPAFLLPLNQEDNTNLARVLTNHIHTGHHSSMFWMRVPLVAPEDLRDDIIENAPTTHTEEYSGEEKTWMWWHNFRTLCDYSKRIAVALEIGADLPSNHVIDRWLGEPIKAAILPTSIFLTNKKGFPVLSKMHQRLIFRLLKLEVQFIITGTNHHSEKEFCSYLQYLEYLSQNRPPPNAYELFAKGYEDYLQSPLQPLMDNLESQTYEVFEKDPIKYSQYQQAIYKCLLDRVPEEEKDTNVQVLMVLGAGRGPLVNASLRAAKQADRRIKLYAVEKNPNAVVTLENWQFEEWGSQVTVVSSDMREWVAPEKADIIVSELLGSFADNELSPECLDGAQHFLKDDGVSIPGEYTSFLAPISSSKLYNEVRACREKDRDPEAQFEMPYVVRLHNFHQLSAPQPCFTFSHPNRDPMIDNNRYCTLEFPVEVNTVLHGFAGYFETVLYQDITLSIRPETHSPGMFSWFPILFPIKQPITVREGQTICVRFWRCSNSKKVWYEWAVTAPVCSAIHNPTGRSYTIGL
T1 sequence (Q9BQA1 whole entry partner): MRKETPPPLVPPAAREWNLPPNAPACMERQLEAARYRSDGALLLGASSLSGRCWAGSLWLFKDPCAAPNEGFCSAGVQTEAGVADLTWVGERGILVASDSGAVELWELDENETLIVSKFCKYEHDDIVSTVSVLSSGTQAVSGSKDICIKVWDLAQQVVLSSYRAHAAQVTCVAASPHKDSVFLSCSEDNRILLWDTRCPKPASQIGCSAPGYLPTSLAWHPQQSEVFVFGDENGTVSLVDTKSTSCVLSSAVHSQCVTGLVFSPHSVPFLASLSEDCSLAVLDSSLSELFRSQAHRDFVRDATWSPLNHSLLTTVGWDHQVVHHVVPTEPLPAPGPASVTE
How it was run: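 Flag-PRMT5/His-MEP50 full-length human complex (Sf9-expressed), 10 nM, with 1 μM SAM and 0.3 μM histone H2A in 20 mM Tris-HCl pH 8.5, 50 mM NaCl, 5 mM MgCl2, 1 mM DTT; 60 min at 30 °C, quenched with 1% formic acid. SAH quantified by RapidFire MS; IC50 from 11-point 1:2 series fitted to four-parameter Hill equation.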

IC50 (A549 cells) [nM]	IC50 (PRMT5-MEP50 enzyme)	pIC50 Assay 2 (A549 cells)	Compound
145	8.13 nM	–	Nc1ncnc2c1ccn2[C@@H]1O[C@H](CN2CCCCC23CCNCC3)[C@@H](O)[C@H]1O [Compound 113]
~1070	33.9 nM	–	Nc1ncnc2c1ccn2[C@@H]1O[C@H](CN2CCCC3(CCNCC3)C2)[C@@H](O)[C@H]1O [Compound 114]
~2750	61.7 nM	–	NCC[C@@H]1CCCN1C[C@H]1CN(C2C=Cc3c(N)ncnc32)[C@H](O)[C@@H]1O (stereo partly drawn) [Compound 127]
~1050	28.8 nM	–	Nc1ncnn2c([C@@H]3O[C@H](CN4CCCC45CCNCC5)[C@@H](O)[C@H]3O)ccc12 [Compound 133]
~263	50.1 nM	–	Nc1ncnn2c([C@@H]3O[C@H](CN4CC(F)(F)CC45CCNCC5)[C@@H](O)[C@H]3O)ccc12 [Compound 136]
1660	3240 nM	–	Nc1ncnn2c([C@@H]3O[C@H](CN4CCCC45CCN(CCc4ccc(F)cc4)CC5)[C@@H](O)[C@H]3O)ccc12 [Compound 139]
> 10000	1950 nM	–	CCN1CCC2(CCCN2C[C@H]2O[C@@H](c3ccc4c(N)ncnn34)[C@H](O)[C@@H]2O)CC1 [Compound 142]
4680	3980 nM	–	CCN1CCC2(CC1)CC(F)(F)CN2C[C@H]1O[C@@H](c2ccc3c(N)ncnn23)[C@H](O)[C@@H]1O [Compound 146]
603	186 nM	–	CN1CCC2(CC1)CC(F)(F)CN2C[C@H]1O[C@@H](c2ccc3c(N)ncnn23)[C@H](O)[C@@H]1O [Compound 147]
> 10000	> 10000 nM	–	Nc1ncnn2c([C@@H]3O[C@H](CN4CCC[C@H]4CCN4CCOCC4)[C@@H](O)[C@H]3O)ccc12 [Compound 150]
> 10000	2510 nM	–	Nc1ncnn2c([C@@H]3O[C@H](CN4CC(F)(F)C[C@H]4CCN4CCCC4)[C@@H](O)[C@H]3O)ccc12 [Compound 155]
1050	26.3 nM	–	NCC[C@@H]1CC(F)(F)CN1C[C@H]1O[C@@H](c2ccc3c(N)ncnn23)[C@H](O)[C@@H]1O [Compound 156]
> 20000	> 10000 nM	–	CN(C)C[C@@H]1CC(F)(F)CCN1C[C@H]1O[C@@H](c2ccc3c(N)ncnn23)[C@H](O)[C@@H]1O [Compound 157]
126	8.51 nM	–	Nc1ncnc2c1ccn2[C@@H]1C[C@H](C(=O)N2CCCC23CCNCC3)[C@@H](O)[C@H]1O [Compound 163]
~6460	> 10000 nM	–	CC(C)C(=O)O[C@@H]1[C@@H](CN2CC(F)(F)CC23CCNCC3)C[C@@H](n2ccc3c(N)ncnc32)[C@@H]1OC(=O)C(C)C [Compound 164]
603	275 nM	–	Nc1ncnc2c1ccn2[C@@H]1O[C@H](CN2CCCC23CCN(CCC(F)(F)F)CC3)[C@@H](O)[C@H]1O [Compound 169]
~148	42.7 nM	–	Nc1ncnc2c1ccn2[C@@H]1O[C@H](CN2CCCC23CCN(CCc2ccc(F)cc2)CC3)[C@@H](O)[C@H]1O [Compound 170]
~2290	501 nM	–	Nc1ncnc2c1ccn2[C@@H]1O[C@H](CN2CCCC23CCN(C2CC2)CC3)[C@@H](O)[C@H]1O [Compound 174]
1410	589 nM	–	Nc1ncnc2c1ccn2[C@@H]1O[C@H](CN2CCCC23CCN(Cc2ccoc2)CC3)[C@@H](O)[C@H]1O [Compound 175]
6030	1120 nM	–	Cc1nc(CN2CCC3(CCCN3C[C@H]3O[C@@H](n4ccc5c(N)ncnc54)[C@H](O)[C@@H]3O)CC2)cs1 [Compound 176]

Second part, the compound before the results:

Compound	IC50 (A549 cells) [nM]	IC50 (PRMT5-MEP50 enzyme)	pIC50 Assay 2 (A549 cells)
Nc1ncnc2c1ccn2[C@@H]1O[C@H](CN2CCC23CCNCC3)[C@@H](O)[C@H]1O [Compound 112]	~1780	33.1 nM	–
CN1CCC2(CC1)CC(F)(F)CN2CC1C[C@@H](n2ccc3c(N)ncnc32)[C@H](O)[C@@H]1O (stereo partly drawn) [Compound 123]	162	22.4 nM	–
Nc1ncnc2c1ccn2[C@@H]1C[C@H](CN2CCCC23CCNCC3)[C@@H](O)[C@H]1O [Compound 124]	447	27.5 nM	–
CN1CCC2(CCCN2CC2C[C@@H](n3ccc4c(N)ncnc43)[C@H](O)[C@@H]2O)CC1 (stereo partly drawn) [Compound 125]	~871	148 nM	–
Nc1ncnc2c1ccn2[C@@H]1C[C@H](CN2CC(F)(F)CC23CCNCC3)[C@@H](O)[C@H]1O [Compound 126]	44.7	17.4 nM	–
NCC[C@@H]1CC(F)(F)CCN1C[C@H]1O[C@@H](c2ccc3c(N)ncnn23)[C@H](O)[C@@H]1O [Compound 128]	> 10000	204 nM	–
CN(C)C[C@@H]1COCCN1C[C@H]1O[C@@H](c2ccc3c(N)ncnn23)[C@H](O)[C@@H]1O [Compound 129]	> 20000	> 10000 nM	–
Nc1ncnn2c([C@@H]3O[C@H](CN4CCOC[C@H]4CN4CCC(F)(F)C4)[C@@H](O)[C@H]3O)ccc12 [Compound 130]	> 20000	> 10000 nM	–
Nc1ncnn2c([C@@H]3O[C@H](CN4CCOC[C@H]4CN4CCCC4)[C@@H](O)[C@H]3O)ccc12 [Compound 131]	> 20000	> 10000 nM	–
NC[C@@H]1COCCN1C[C@H]1O[C@@H](c2ccc3c(N)ncnn23)[C@H](O)[C@@H]1O [Compound 132]	> 20000	1550 nM	–
NCC[C@@H]1COCCN1C[C@H]1O[C@@H](c2ccc3c(N)ncnn23)[C@H](O)[C@@H]1O [Compound 134]	8910	200 nM	–
CN1CCC2(CCCN2C[C@H]2O[C@@H](c3ccc4c(N)ncnn34)[C@H](O)[C@@H]2O)CC1 [Compound 135]	~1050	617 nM	–
Nc1ncnn2c([C@@H]3O[C@H](CN4C(C(F)(F)F)CCC45CCNCC5)[C@@H](O)[C@H]3O)ccc12 (stereo partly drawn) [Compound 137]	> 10000	1150 nM	–
N#CCN1CCC2(CCCN2C[C@H]2O[C@@H](c3ccc4c(N)ncnn34)[C@H](O)[C@@H]2O)CC1 [Compound 140]	~3020	295 nM	–
Nc1ncnn2c([C@@H]3O[C@H](CN4CCCC45CCN(CC(F)(F)F)CC5)[C@@H](O)[C@H]3O)ccc12 [Compound 141]	> 10000	> 10000 nM	–
Nc1ncnn2c([C@@H]3O[C@H](CN4CC(F)(F)CC45CCN(CCc4ccc(F)cc4)CC5)[C@@H](O)[C@H]3O)ccc12 [Compound 143]	1580	7240 nM	–
N#CCN1CCC2(CC1)CC(F)(F)CN2C[C@H]1O[C@@H](c2ccc3c(N)ncnn23)[C@H](O)[C@@H]1O [Compound 144]	~933	447 nM	–

Compound	IC50 (A549 cells) [nM]	IC50 (PRMT5-MEP50 enzyme)	pIC50 Assay 2 (A549 cells)
Nc1ncnn2c([C@@H]3O[C@H](CN4CC(F)(F)CC45CCN(CC(F)(F)F)CC5)[C@@H](O)[C@H]3O)ccc12 [Compound 145]	> 10000	> 10000 nM	–
CN(C)CC[C@@H]1CCCN1C[C@H]1O[C@@H](c2ccc3c(N)ncnn23)[C@H](O)[C@@H]1O [Compound 148]	> 10000	1260 nM	–
CN(C)C[C@@H]1CC(F)(F)CN1C[C@H]1O[C@@H](c2ccc3c(N)ncnn23)[C@H](O)[C@@H]1O [Compound 151]	~6170	5500 nM	–
CN(C)CC[C@@H]1CC(F)(F)CN1C[C@H]1O[C@@H](c2ccc3c(N)ncnn23)[C@H](O)[C@@H]1O [Compound 152]	4070	2950 nM	–
Nc1ncnn2c([C@@H]3O[C@H](CN4CC(F)(F)C[C@H]4CCN4CCOCC4)[C@@H](O)[C@H]3O)ccc12 [Compound 154]	> 10000	> 10000 nM	–
Nc1ncnn2c([C@@H]3O[C@H](CN4CCC(F)(F)C[C@H]4CN4CCCC4)[C@@H](O)[C@H]3O)ccc12 [Compound 159]	> 20000	> 10000 nM	–
NC[C@@H]1CC(F)(F)CCN1C[C@H]1O[C@@H](c2ccc3c(N)ncnn23)[C@H](O)[C@@H]1O [Compound 160]	> 20000	2690 nM	–
Nc1ncnn2c([C@@H]3O[C@H](C(=O)N4CCCC45CCNCC5)[C@@H](O)[C@H]3O)ccc12 [Compound 161]	4170	380 nM	–
CN(C)CC[C@@H]1CC(F)(F)CN1C(=O)[C@H]1O[C@@H](c2ccc3c(N)ncnn23)[C@H](O)[C@@H]1O [Compound 162]	> 20000	3800 nM	–
Nc1ncnn2c([C@@H]3O[C@H](CN4CCC45CCNCC5)[C@@H](O)[C@H]3O)ccc12 [Compound 165]	> 10000	871 nM	–
Nc1ncnc2c1ccn2[C@@H]1C[C@H](CC2=CCCC23CCNCC3)[C@@H](O)[C@H]1O [Compound 166]	–	1.86 nM and 1.58 nM and 0.631 nM	7.41 and 7.92 and 7.87
Nc1ncnc2c1ccn2[C@@H]1C[C@H](/C=C2\CCCC23CCNCC3)[C@@H](O)[C@H]1O [Compound 167]	30.2	3.16 nM and 1.58 nM	7.68
CN1CCC2(CCCN2C[C@H]2O[C@@H](n3ccc4c(N)ncnc43)[C@H](O)[C@@H]2O)CC1 [Compound 168]	204	26.3 nM and 17.4 nM and 8.51 nM	~6.64 and ~6.7
Nc1ncnc2c1ccn2[C@@H]1O[C@H](CN2CCCC23CCN(Cc2ccc(F)cc2)CC3)[C@@H](O)[C@H]1O [Compound 171]	~4070	1620 nM	–
Nc1ncnc2c1ccn2[C@@H]1O[C@H](CN2CCCC23CCN(Cc2cccnc2)CC3)[C@@H](O)[C@H]1O [Compound 172]	~912	309 nM	–
Nc1ncnc2c1ccn2[C@@H]1O[C@H](CN2CCCC23CCN(CCOc2ccc(F)cc2)CC3)[C@@H](O)[C@H]1O [Compound 173]	776	347 nM	–
